Assays:
[1] = Serum total bile acids in carbon tetrachloride-induced liver injury model; assay type: in vivo, mouse; conditions: L-TBA mice, CCl4 i.p. three times a week for 2 weeks vs vehicle control
Description: (§1) C57BL/6J wild-type (WT) mice (Stock #000664) were procured from Jackson Laboratory and bred in-house in specific pathogen-free condition at the University of Toledo College of Medicine and Life Sciences. Mice were housed in cages (n=5 mice/cage) containing corn cob bedding (Bed-O-Cob; The Andersons Co.) and nestlets (Cat #CABFM00088; Ancare). The cages were housed at 23° C. under a 12/12-h light/dark phase cycle and fed a grain-based laboratory chow diet (LabDiet 5001) ad libitum. Mice were screened for serum total bile acids (TBA) prior to weaning. On day 22 for weaning, mice with low bile acids (L-TBA<40 µM) or high bile acids (H-TBA≥40 µM) were segregated into separate cages. To induce liver fibrosis in mice, carbon tetrachloride (Sigma-Aldrich, St. Louis, MO) ([…]) was administered intraperitoncally three times a week for 2 weeks with corn oil (Sigma-Aldrich) (50 μL) serving as vehicle control.
Total bile acids (TBA) in hemolysis-free sera were measured using a TBA assay kit (Enzyme Cycling Method; Diazyme Laboratories) according to the manufacturer's protocol.

[2] = system: RBCs; experiment: Osmotic fragility test of RBCs from CCl4-treated mice; assay type: in vivo, mouse; conditions: RBCs of L-TBA mice treated with CCl4 for 2 weeks vs vehicle; NaCl osmotic fragility
Description: as §1
Blood was collected in EDTA-containing tubes and then 10 μl aliquots were placed into a round bottom 96-well plate. […] The degree of red blood cell (RBC) hemolysis was evaluated spectrophotometrically at 540 nm on a Biotek Eon microplate spectrophotometer and normalized to the optical density value of 0.0% buffered salt solution. […] All groups were incubated at 37° C. for 1 hr prior and measured for osmotic fragility.

[3] = system: RBCs from L-TBA mice; experiment: Osmotic fragility test after ex-vivo bile acid supplementation of RBCs; assay type: cell-based, mouse; conditions: 100 μM bile acid in PBS, 1 hr at 37° C. before NaCl osmotic fragility test; vs PBS alone

Row | Compound | increase in serum TBA levels [1] [fold] | resistance of RBCs to osmotic lysis [2] | resistance to osmotic lysis (hemolysis) of L-TBA RBCs [3]
1 | ClC(Cl)(Cl)Cl [CCl4, carbon tetrachloride] | 16 | highly resistant to osmotic lysis | –
2 | C[C@H](CCC(=O)NCCS(=O)(=O)O)[C@H]1CC[C@H]2[C@@H]3[C@H](O)C[C@@H]4C[C@H](O)CC[C@]4(C)[C@H]3C[C@H](O)[C@]12C [taurocholate, taurocholic acid] | – | – | failed to induce any resistance
3 | C[C@H](CCC(=O)O)[C@H]1CC[C@H]2[C@@H]3[C@H](O)C[C@@H]4C[C@H](O)CC[C@]4(C)[C@H]3C[C@H](O)[C@]12C [cholic acid] | – | – | confer resistance
